In the test the test system is TRAMP-C2 and/or Panc02 pancreatic ductal adenocarcinoma cells. As to the kind of experiment: Antitumor activity of TH-302 with immune modulating agents in mice xenografts. The format is in vivo. Conditions: single agent; TH-302 50 mg/kg i.p. every day for 5 days; tumor growth observed by IVIS. As to the method:
5×10^5 to 1×10^6 TRAMP-C2, C57BL/6J, B6, FVB F1 cells and/or Panc02 pancreatic ductal adenocarcinoma cells expressing luciferase are […] implanted s.c. on the right flank of albino or ODD-Luc reporter mice. The mice are treated with TH-302 alone (50 mg/kg i.p., every day for 5 days), either 1 week, 3 weeks or 16 weeks after TRAMP cell implantation, with a week of rest in between. Some mice are also treated with CTLA-4 blocking antibody 9H10, PD-1 blocking antibody RMP1-14 and/or agonistic […] antibody given i.p. on days 1, 4, 7 and days 13, 16 and 19 for one to three cycles. Mice are monitored for survival (log-rank, mantel-cox test) and tumor growth was observed by IVIS once a week up to 140 days after tumor implantation. The mice were then sacrificed and their organs were weighed and tumors were isolated, fixed in paraformaldehyde or acetone, embedded/mounted in OCT, frozen, sectioned, stained for hypoxia with anti-piminidazole FITC, GR-1 V450, CD11b Alexa 546, and/or F4/80 Alexa 647.

Structures are written as SMILES.

With `Cn1c(COP(=O)(NCCBr)NCCBr)cnc1[N+](=O)[O-]` [TH-302], the tumor growth delay result is given as “produced a growth delay”.

Source of the values: patent US20210369746A1, “ADMINISTRATION OF HYPOXIA ACTIVATED PRODRUGS IN COMBINATION WITH IMMUNE MODULATORY AGENTS FOR TREATING CANCER” (MOLECULAR TEMPLATES, INC., priority 2016, published 2021).
